Source: the supplement of paper PMC13207355

How the values were obtained:
Conditions in all cases: exposure time: 72 h
E28 [1] = patient-derived glioblastoma stem cells of classical subtype; assay: surviving fraction (nuclei count normalised to DMSO); higher = more cells surviving (less toxic)
E13 [2] = patient-derived glioblastoma stem cells of classical subtype; assay: as above
E31 [3] = patient-derived glioblastoma stem cells of proneural subtype; assay: as above
E21 [4] = patient-derived glioblastoma stem cells of mesenchymal subtype; assay: as above
FT3469 [5] = normal neural stem cell line; assay: as above
E34 [6] = patient-derived glioblastoma stem cells of proneural subtype; assay: as above
E57 [7] = patient-derived glioblastoma stem cells of mesenchymal subtype; assay: as above
E28 [8] = assay: phenotypic distance (Euclidean, principal components) from DMSO controls (arbitrary units); higher = stronger morphological change
E13 [9] = assay: as above
E31 [10] = assay: as above
E21 [11] = assay: as above
FT3469 [12] = assay: as above
E34 [13] = assay: as above
E57 [14] = assay: as above
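Throughout, for phenotypic distance (Euclidean, principal components) from DMSO controls: cell Painting imaging in 384-well plates, CellProfiler features reduced to at least 20 principal components, Euclidean distance versus same-plate DMSO vehicle wells (0.1% v/v), median over six images per well.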
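Throughout, for surviving fraction (nuclei count normalised to DMSO): nuclei counted by high-content imaging of Hoechst-stained cells in laminin-coated 384-well plates, relative to 0.1% DMSO vehicle wells, with staurosporine as cell-death control.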

Cc1ccc2c(c1)C1(CCN(CCc3nc(-c4ccccc4)oc3C)CC1)OC(=O)N2
Conditions	phenotypic distance	surviving fraction
E13 [2], 4.1 nM	–	0.988
E13 [2], 12.3 nM	–	1.09
E13 [2], 37 nM	–	1.12
E13 [2], 111.1 nM	–	1.07
E13 [2], 333.3 nM	–	1.12
E13 [2], 1000 nM	–	1.11
E13 [2], 3000 nM	–	0.943
E13 [9], 4.1 nM	2.72	–
E13 [9], 12.3 nM	2.97	–
E13 [9], 37 nM	1.42	–
E13 [9], 111.1 nM	0.52	–
E13 [9], 333.3 nM	0.547	–
E13 [9], 1000 nM	0.819	–
E13 [9], 3000 nM	0.711	–
E21 [4], 4.1 nM	–	0.932
E21 [4], 12.3 nM	–	0.961
E21 [4], 37 nM	–	0.956
E21 [4], 111.1 nM	–	1.07
E21 [4], 333.3 nM	–	0.988
E21 [4], 1000 nM	–	0.923
E21 [4], 3000 nM	–	0.891
E21 [11], 4.1 nM	1.42	–
E21 [11], 12.3 nM	0.605	–
E21 [11], 37 nM	4.58	–
E21 [11], 111.1 nM	0.716	–
E21 [11], 333.3 nM	0.433	–
E21 [11], 1000 nM	0.642	–
E21 [11], 3000 nM	1.29	–
E28 [1], 4.1 nM	–	1.07
E28 [1], 12.3 nM	–	0.977
E28 [1], 37 nM	–	1.11
E28 [1], 111.1 nM	–	0.99
E28 [1], 333.3 nM	–	1.11
E28 [1], 1000 nM	–	0.938
E28 [1], 3000 nM	–	1.1
E28 [8], 4.1 nM	0.761	–
E28 [8], 12.3 nM	1.33	–
E28 [8], 37 nM	0.46	–
E28 [8], 111.1 nM	0.636	–
E28 [8], 333.3 nM	0.695	–
E28 [8], 1000 nM	0.667	–
E28 [8], 3000 nM	0.74	–
E31 [3], 4.1 nM	–	1.04
E31 [3], 12.3 nM	–	0.99
E31 [3], 37 nM	–	1.01
E31 [3], 111.1 nM	–	0.979
E31 [3], 333.3 nM	–	1.04
E31 [3], 1000 nM	–	0.996
E31 [3], 3000 nM	–	0.955
E31 [10], 4.1 nM	1.24	–
E31 [10], 12.3 nM	0.61	–
E31 [10], 37 nM	0.972	–
E31 [10], 111.1 nM	0.485	–
E31 [10], 333.3 nM	0.605	–
E31 [10], 1000 nM	0.491	–
E31 [10], 3000 nM	0.687	–
E34 [6], 4.1 nM	–	0.851
E34 [6], 12.3 nM	–	1.03
E34 [6], 37 nM	–	0.875
E34 [6], 111.1 nM	–	0.878
E34 [6], 333.3 nM	–	1.17
E34 [6], 1000 nM	–	1.07
E34 [6], 3000 nM	–	1.05
E34 [13], 4.1 nM	0.895	–
E34 [13], 12.3 nM	2	–
E34 [13], 37 nM	0.587	–
E34 [13], 111.1 nM	0.749	–
E34 [13], 333.3 nM	0.998	–
E34 [13], 1000 nM	0.765	–
E34 [13], 3000 nM	0.942	–
E57 [7], 4.1 nM	–	1.05
E57 [7], 12.3 nM	–	1.03
E57 [7], 37 nM	–	0.923
E57 [7], 111.1 nM	–	1.01
E57 [7], 333.3 nM	–	1.04
E57 [7], 1000 nM	–	0.967
E57 [7], 3000 nM	–	1.02
E57 [14], 4.1 nM	0.955	–
E57 [14], 12.3 nM	0.495	–
E57 [14], 37 nM	0.64	–
E57 [14], 111.1 nM	0.513	–
E57 [14], 333.3 nM	0.49	–
E57 [14], 1000 nM	0.453	–
E57 [14], 3000 nM	0.766	–
FT3469 [5], 4.1 nM	–	0.873
FT3469 [5], 12.3 nM	–	1.15
FT3469 [5], 37 nM	–	1.04
FT3469 [5], 111.1 nM	–	0.795
FT3469 [5], 333.3 nM	–	1.1
FT3469 [5], 1000 nM	–	1.03
FT3469 [5], 3000 nM	–	0.991
FT3469 [12], 4.1 nM	1.5	–
FT3469 [12], 12.3 nM	0.887	–
FT3469 [12], 37 nM	0.645	–
FT3469 [12], 111.1 nM	1.16	–
FT3469 [12], 333.3 nM	0.543	–
FT3469 [12], 1000 nM	0.575	–
FT3469 [12], 3000 nM	0.661	–

Nc1ncn([C@@H]2O[C@H](CO)[C@@H](O)[C@H]2O)c(=O)n1 [5-azacytidine]
Conditions	phenotypic distance	surviving fraction
E13 [2], 4.11523 nM	–	0.808
E13 [2], 12.34567901 nM	–	0.874
E13 [2], 37.037 nM	–	0.939
E13 [2], 111.1111111 nM	–	0.778
E13 [2], 333.333 nM	–	0.755
E13 [2], 1000 nM	–	0.67
E13 [2], 3000 nM	–	0.358
E13 [9], 4.11523 nM	0.922	–
E13 [9], 12.34567901 nM	0.542	–
E13 [9], 37.037 nM	0.817	–
E13 [9], 111.1111111 nM	1.58	–
E13 [9], 333.333 nM	1.47	–
E13 [9], 1000 nM	3	–
E13 [9], 3000 nM	6.57	–
E21 [4], 4.11523 nM	–	0.745
E21 [4], 12.34567901 nM	–	0.93
E21 [4], 37.037 nM	–	0.921
E21 [4], 111.1111111 nM	–	0.871
E21 [4], 333.333 nM	–	0.665
E21 [4], 1000 nM	–	0.6
E21 [4], 3000 nM	–	0.426
E21 [11], 4.11523 nM	1.24	–
E21 [11], 12.34567901 nM	5.31	–
E21 [11], 37.037 nM	1.2	–
E21 [11], 111.1111111 nM	1.66	–
E21 [11], 333.333 nM	1.85	–
E21 [11], 1000 nM	2.19	–
E21 [11], 3000 nM	3.53	–
E28 [1], 4.11523 nM	–	0.899
E28 [1], 12.34567901 nM	–	1.22
E28 [1], 37.037 nM	–	0.711
E28 [1], 111.1111111 nM	–	0.969
E28 [1], 333.333 nM	–	0.753
E28 [1], 1000 nM	–	0.984
E28 [1], 3000 nM	–	0.497
E28 [8], 4.11523 nM	0.861	–
E28 [8], 12.34567901 nM	1.19	–
E28 [8], 37.037 nM	1.09	–
E28 [8], 111.1111111 nM	0.941	–
E28 [8], 333.333 nM	0.932	–
E28 [8], 1000 nM	1.03	–
E28 [8], 3000 nM	1.84	–
E31 [3], 4.11523 nM	–	0.945
E31 [3], 12.34567901 nM	–	0.84
E31 [3], 37.037 nM	–	0.848
E31 [3], 111.1111111 nM	–	0.9
E31 [3], 333.333 nM	–	0.718
E31 [3], 1000 nM	–	0.644
E31 [3], 3000 nM	–	0.298
E31 [10], 4.11523 nM	1.21	–
E31 [10], 12.34567901 nM	1.33	–
E31 [10], 37.037 nM	1.03	–
E31 [10], 111.1111111 nM	0.932	–
E31 [10], 333.333 nM	1.18	–
E31 [10], 1000 nM	1.85	–
E31 [10], 3000 nM	3.43	–
E34 [6], 4.11523 nM	–	0.97
E34 [6], 12.34567901 nM	–	1.02
E34 [6], 37.037 nM	–	1.01
E34 [6], 111.1111111 nM	–	1.07
E34 [6], 333.333 nM	–	0.862
E34 [6], 1000 nM	–	0.731
E34 [6], 3000 nM	–	0.643
E34 [13], 4.11523 nM	0.558	–
E34 [13], 12.34567901 nM	0.75	–
E34 [13], 37.037 nM	1.12	–
E34 [13], 111.1111111 nM	0.943	–
E34 [13], 333.333 nM	1.52	–
E34 [13], 1000 nM	1.39	–
E34 [13], 3000 nM	2.19	–
E57 [7], 4.11523 nM	–	0.959
E57 [7], 12.34567901 nM	–	0.904
E57 [7], 37.037 nM	–	0.961
E57 [7], 111.1111111 nM	–	0.841
E57 [7], 333.333 nM	–	0.78
E57 [7], 1000 nM	–	0.507
E57 [7], 3000 nM	–	0.287
E57 [14], 4.11523 nM	0.981	–
E57 [14], 12.34567901 nM	1.07	–
E57 [14], 37.037 nM	1.13	–
E57 [14], 111.1111111 nM	1.59	–
E57 [14], 333.333 nM	1.59	–
E57 [14], 1000 nM	3.31	–
E57 [14], 3000 nM	5.71	–
FT3469 [5], 4.11523 nM	–	0.82
FT3469 [5], 12.34567901 nM	–	0.768
FT3469 [5], 37.037 nM	–	0.86
FT3469 [5], 111.1111111 nM	–	0.944
FT3469 [5], 333.333 nM	–	0.915
FT3469 [5], 1000 nM	–	0.734
FT3469 [5], 3000 nM	–	0.665
FT3469 [12], 4.11523 nM	1.08	–
FT3469 [12], 12.34567901 nM	1.06	–
FT3469 [12], 37.037 nM	0.921	–
FT3469 [12], 111.1111111 nM	0.795	–
FT3469 [12], 333.333 nM	0.957	–
FT3469 [12], 1000 nM	1.34	–
FT3469 [12], 3000 nM	2.03	–
